Test results reported in PubChem BioAssay AID1918995 (Molecular Pharmacology Branch, DTP, NCI, 2023).
“And” between values parts separate entries of the source, which are not always exact repeats. Identical values can stand only once.

System: 324938-238-R-J1-PDC complex spheroid growth, % test/control
Test: Anticancer human tumor 324938-238-R-J1-PDC patient-derived bladder carcinoma cell line growth inhibition [AhR]
Conditions: for viability, T/C: stronger effect = lower value
Procedure, shortened: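 Agents were dosed in half-log steps down from roughly clinical Cmax, or from 10 microM where Cmax was unknown, alone and with AhR antagonists. Read-out: percent test/control growth of tumor spheroids containing HUVEC and MSC stromal cells.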

[1] = curve of first compound, second compound 0.1 µM
[2] = curve of first compound, second compound 0.316 µM
[3] = curve of first compound, second compound 1 µM
[4] = curve of first compound, second compound 3.16 µM
[5] = curve of first compound, second compound 10 µM
[6] = second compound 0.1 µM, first compound 0.0316 µM
[7] = second compound 0.1 µM, first compound 0.1 µM
[8] = second compound 0.1 µM, first compound 0.316 µM
[9] = second compound 0.1 µM, first compound 1 µM
[10] = second compound 0.1 µM, first compound 3.16 µM
[11] = second compound 0.1 µM, first compound 10 µM
[12] = second compound 0.316 µM, first compound 0.0316 µM
[13] = second compound 0.316 µM, first compound 0.1 µM
[14] = second compound 0.316 µM, first compound 0.316 µM
[15] = second compound 0.316 µM, first compound 1 µM
[16] = second compound 0.316 µM, first compound 3.16 µM
[17] = second compound 0.316 µM, first compound 10 µM
[18] = second compound 1 µM, first compound 0.0316 µM
[19] = second compound 1 µM, first compound 0.1 µM
[20] = second compound 1 µM, first compound 0.316 µM
[21] = second compound 1 µM, first compound 1 µM
[22] = second compound 1 µM, first compound 3.16 µM
[23] = second compound 1 µM, first compound 10 µM
[24] = second compound 3.16 µM, first compound 0.0316 µM
[25] = second compound 3.16 µM, first compound 0.1 µM
[26] = second compound 3.16 µM, first compound 0.316 µM
[27] = second compound 3.16 µM, first compound 1 µM
[28] = second compound 3.16 µM, first compound 3.16 µM
[29] = second compound 3.16 µM, first compound 10 µM
[30] = second compound 10 µM, first compound 0.0316 µM
[31] = second compound 10 µM, first compound 0.1 µM
[32] = second compound 10 µM, first compound 0.316 µM
[33] = second compound 10 µM, first compound 1 µM
[34] = second compound 10 µM, first compound 3.16 µM
[35] = second compound 10 µM, first compound 10 µM
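Also: spheroids exposed to agents for seven days before viability read.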

Row | Structure (SMILES) | IC50 [1] | IC50 [2] | IC50 [3] | IC50 [4] | IC50 [5] | viability, T/C [6] | viability, T/C [7] | viability, T/C [8] | viability, T/C [9] | viability, T/C [10] | viability, T/C [11] | viability, T/C [12] | viability, T/C [13] | viability, T/C [14] | viability, T/C [15] | viability, T/C [16] | viability, T/C [17] | viability, T/C [18] | viability, T/C [19] | viability, T/C [20] | other results
1 | CC1COCCN1c1cc(C2(S(C)(=N)=O)CC2)nc(-c2ccnc3[nH]ccc23)n1 (centres undefined) + Cc1cncc(-c2nc(NCCc3c[nH]c4ccccc34)c3ncn(C(C)C)c3n2)c1 | > 10 µM | > 10 µM | > 10 µM | > 10 µM | < 0.0316 µM | 112% | 126% | 90.9% | 93.4% | 93.2% | 74.2% | 98.4% | 127% | 127% | 110% | 70.2% | 86.7% | 111% | 109% | 108% | viability, T/C [21]: 96.4%; viability, T/C [22]: 87.5%; viability, T/C [23]: 73.5%; viability, T/C [24]: 80.5%; viability, T/C [25]: 92.5%; viability, T/C [26]: 89.8%; viability, T/C [27]: 109%; viability, T/C [28]: 87.1%; viability, T/C [29]: 81.1%; viability, T/C [30]: 8.69%; viability, T/C [31]: 13.3%; viability, T/C [32]: 17.8%; viability, T/C [33]: 14.7%; viability, T/C [34]: 8.67%; viability, T/C [35]: 5.3%
2 | CC1(C)CCC(CN2CCN(c3ccc(C(=O)NS(=O)(=O)c4ccc(NCC5CCOCC5)c([N+](=O)[O-])c4)c(Oc4cnc5[nH]ccc5c4)c3)CC2)=C(c2ccc(Cl)cc2)C1 | – | – | – | – | – | – | – | – | – | – | – | – | – | – | – | – | – | – | – | – | viability, T/C (compound 0.0316 µM): 87.5% and 102% and 105%; viability, T/C (compound 0.1 µM): 125% and 98.4% and 101%; viability, T/C (compound 0.316 µM): 93.4% and 103% and 109%; viability, T/C (compound 1 µM): 82.8% and 94.3% and 101%; viability, T/C (compound 3.16 µM): 104% and 90.7% and 87.7%; viability, T/C (compound 10 µM): 114% and 59.1% and 52.6%; IC50 (curve of compound): > 10 µM
3 | O=C(c1cc(Cc2n[nH]c(=O)c3ccccc23)ccc1F)N1CCN(C(=O)C2CC2)CC1 + CC(CO)NC(=O)c1cc(-c2ccc(Cl)cc2)nn(-c2cnn(C)c2)c1=O | 9.56 µM | > 10 µM | > 10 µM | 6.86 µM | 5.14 µM | 97.6% | 104% | 85.3% | 75.6% | 66.9% | 48.6% | 83.3% | 81% | 79.2% | 69.8% | 65.3% | 52% | 82% | 77.1% | 75.1% | viability, T/C [21]: 70.6%; viability, T/C [22]: 65.7%; viability, T/C [23]: 54%; viability, T/C [24]: 65.8%; viability, T/C [25]: 69.8%; viability, T/C [26]: 73.7%; viability, T/C [27]: 57.8%; viability, T/C [28]: 53.9%; viability, T/C [29]: 48.4%; viability, T/C [30]: 58.8%; viability, T/C [31]: 63.8%; viability, T/C [32]: 55.5%; viability, T/C [33]: 50.5%; viability, T/C [34]: 54.1%; viability, T/C [35]: 47.5%
4 | CCN(c1cc(-c2ccc(CN3CCOCC3)cc2)cc(C(=O)NCc2c(C)cc(C)[nH]c2=O)c1C)C1CCOCC1 | – | – | – | – | – | – | – | – | – | – | – | – | – | – | – | – | – | – | – | – | viability, T/C (compound 0.00949 µM): 93.5% and 100% and 111%; viability, T/C (compound 0.03 µM): 109% and 106% and 117%; viability, T/C (compound 0.0949 µM): 106% (2×) and 107%; viability, T/C (compound 0.3 µM): 83% and 100% and 116%; viability, T/C (compound 0.949 µM): 85% and 104% and 113%; viability, T/C (compound 3 µM): 124% and 97.5% and 105%; IC50 (curve of compound): > 3 µM
5 | CC(C)c1c(-c2ccccc2)nc2c(C#N)c[nH]n2c1=O + CC(CO)NC(=O)c1cc(-c2ccc(Cl)cc2)nn(-c2cnn(C)c2)c1=O | > 10 µM | > 10 µM | > 10 µM | > 10 µM | > 10 µM | 110% | 115% | 88.1% | 87.2% | 92.5% | 88% | 94.7% | 98.9% | 92.8% | 78.8% | 88.5% | 81.2% | 87.5% | 88.1% | 87.4% | viability, T/C [21]: 76.5%; viability, T/C [22]: 89.2%; viability, T/C [23]: 75.8%; viability, T/C [24]: 73.4%; viability, T/C [25]: 76.4%; viability, T/C [26]: 71%; viability, T/C [27]: 64.4%; viability, T/C [28]: 63.4%; viability, T/C [29]: 60.9%; viability, T/C [30]: 65.4%; viability, T/C [31]: 67%; viability, T/C [32]: 64%; viability, T/C [33]: 57.9%; viability, T/C [34]: 54.9%; viability, T/C [35]: 56.5%
6 | CC1COCCN1c1cc(C2(S(C)(=N)=O)CC2)nc(-c2ccnc3[nH]ccc23)n1 (centres undefined) + CC(CO)NC(=O)c1cc(-c2ccc(Cl)cc2)nn(-c2cnn(C)c2)c1=O | 2.18 µM | 1.58 µM | 2.11 µM | 1.76 µM | 0.916 µM | 95.6% | 109% | 89.6% | 69.8% | 41.4% | 19.8% | 103% | 97.5% | 91.5% | 57.2% | 37.3% | 20.6% | 89.4% | 95.9% | 98.1% | viability, T/C [21]: 72%; viability, T/C [22]: 38.6%; viability, T/C [23]: 22.5%; viability, T/C [24]: 81.3%; viability, T/C [25]: 77.9%; viability, T/C [26]: 76.3%; viability, T/C [27]: 65.6%; viability, T/C [28]: 34%; viability, T/C [29]: 16.7%; viability, T/C [30]: 70.3%; viability, T/C [31]: 73.6%; viability, T/C [32]: 68.8%; viability, T/C [33]: 47.3%; viability, T/C [34]: 28.8%; viability, T/C [35]: 20%
